How the values were obtained:
[1] = tested on: Granta519 cells; assay: Cell viability (Celltiter-Glo), Granta519; type: cell-based; settings: Homo sapiens, Granta-519, 48 hours
Description: (§1) The results of this experiment are shown in FIGS. 1A-1C, and in Table 7 below. Human mantle cell lymphoma cell lines were grown in 96 well plates with 5000 cells per well in RPMI 1640 media supplemented with 10% fetal bovine serum. Cells were treated for 48 hours with a concentration range of each compound from 50 nM to 50 uM. Cell viability a measure of viable cell numbers was determined using a Celltiter-Glo^R reagent for each concentration in order to construct an IC50 curve for each compound in each cell line.

[2] = tested on: Mino cells; assay: Cell viability (Celltiter-Glo), Mino; type: cell-based; settings: Homo sapiens, 48 hours
Description: as §1

[3] = tested on: JeKo-1 cells; assay: Cell viability (Celltiter-Glo), JeKo-1; type: cell-based; settings: Homo sapiens, 48 hours
Description: as §1

[4] = tested on: Mino cells; assay: Percentage cells in apoptosis, Mino; type: cell-based, human; settings: 24-hour
From the text: (§2) Additionally apoptosis data was obtained in both JeKo and Mino cells for compound 7.

[5] = tested on: JeKo-1 cells; assay: Percentage cells in apoptosis, JeKo-1; type: cell-based, human
From the text: as §2

[6] = target: T1, PI3K γ (Homo sapiens, UniProt P48736); assay: PI3K gamma inhibition (Thermo Fisher Scientific); type: biochemical; settings: 10-point curve; read-out: Target IC50 PI3K γ
T1 construct: purchased Thermo Fisher Scientific-Biosciences Life Sciences Solutions, Madison, Wis; (contract assay)
Description: (§3) The BTK, PI3K, and/or bromodomain inhibitory activity of a compound of the invention can be determined by methods known to the skilled artisan, or by procuring relevant analysis by a commercial vendor offering such services. […] In vivo, PI3K inhibition can be determined from target tissue biopsies by standard tissue processing in which cells are disrupted and Western Blot analysis is performed to determine the presence or absence of pAKT (substrate of PI3K) relative to a control sample. PI3K inhibition assays and BTK inhibition assays are known in the art and can be procured commercially through vendors such as Reaction Biology (Malvern, Pa.). The activity of a compound of the invention as an inhibitor of a bromodomain-containing protein, such as a BET protein, including BRD2, BRD3, BRD4, and/or BRDT, or an isoform or mutant thereof, may be determined in vitro, in vivo, or in a cell line. In vitro assays include assays that determine inhibition of bromodomain-containing proteins. Alternatively, inhibitor binding may be determined by running a competition experiment where a provided compound is incubated with a bromodomain-containing protein, such as a BET protein bound to known ligands, labeled or unlabeled. In vitro bromodomain inhibition assays can be performed using Alpha Screen Technology (Perkin Elmer Life and Analytical Sciences, Shelton, Conn.). In vivo bromodomain inhibition can be determined indirectly by evaluating the amount of a protein whose gene transcription is influenced or controlled by the bromodomain protein, for example, MYCN protein transcription is controlled by BRD4 (J. E. Delmore et al., Cell 2011, 146, 904-917; A. Puissant, Cancer Discov. 2013, 3, 308-323).
(§4) Compounds of the invention were analyzed for their ability to inhibit target proteins in vitro. PI3K alpha, gamma, and delta inhibition activity was determined by Thermo Fisher Scientific-Biosciences Life Sciences Solutions, Madison, Wis. The bromodomain protein inhibition (binding domain 1 and 2 of BRD4) was determined at Reaction Biology Corp., Malvern, Pa. BTK inhibition was performed by Reaction Biology Corp., Malvern, Pa.
(§5) Additional information regarding the testing procedures is available at each company's website on the internet. The IC50 data was calculated from a 10-point curve by the vendor and is compiled in ranges in the Table 6 below.

[7] = target: T2, BTK (WT) (Homo sapiens, UniProt Q06187); assay: native BTK inhibition (Reaction Biology Corp.); type: biochemical; settings: 10-point curve; read-out: Target IC50 BTK (WT)
T2 construct: purchased Reaction Biology Corp., Malvern, Pa; (contract assay)
Description: as §4, §5

[8] = target: T3, PI3K δ (Homo sapiens, UniProt O00329); assay: PI3K delta inhibition (Thermo Fisher Scientific); type: biochemical; settings: 10-point curve; read-out: Target IC50 PI3K δ
T3 construct: purchased Thermo Fisher Scientific-Biosciences Life Sciences Solutions, Madison, Wis; (contract assay)
Description: as §3, §4, §5

[9] = target: T4, PI3K α (Homo sapiens, UniProt P42336); assay: PI3K alpha inhibition (Thermo Fisher Scientific); type: biochemical; settings: 10-point curve; read-out: Target IC50 PI3K α
T4 construct: purchased Thermo Fisher Scientific-Biosciences Life Sciences Solutions, Madison, Wis; (contract assay)
Description: as §3, §4, §5

[10] = target: T5, BRD4-2 (binding domain 2 of BRD4) (Homo sapiens, UniProt O60885); assay: BRD4 binding domain 2 inhibition (Reaction Biology Corp.); settings: 10-point curve; read-out: Target IC50 BRD4-2
T5 construct: purchased Reaction Biology Corp., Malvern, Pa; (contract assay)
Description: as §3, §4, §5

[11] = target: T6, BRD4-1 (binding domain 1 of BRD4) (Homo sapiens, UniProt O60885); assay: BRD4 binding domain 1 inhibition (Reaction Biology Corp.); settings: 10-point curve; read-out: Target IC50 BRD4-1
T6 construct: purchased Reaction Biology Corp., Malvern, Pa; (contract assay)
Description: as §3, §4, §5

[12] = target: T7, BTK (C481S) (Homo sapiens, UniProt Q06187, C481S); assay: BTK cysteine mutant C481S inhibition (Reaction Biology Corp.); type: biochemical; settings: for IC50: 10-point curve, read-out: Target IC50 BTK (C481S); for Ratio C481S/WT: ratio of the BTK IC50 values, C481S over wild-type
T7 construct: purchased Reaction Biology Corp., Malvern, Pa; (contract assay)
Description: as §4, §5

T1 sequence (P48736 whole entry): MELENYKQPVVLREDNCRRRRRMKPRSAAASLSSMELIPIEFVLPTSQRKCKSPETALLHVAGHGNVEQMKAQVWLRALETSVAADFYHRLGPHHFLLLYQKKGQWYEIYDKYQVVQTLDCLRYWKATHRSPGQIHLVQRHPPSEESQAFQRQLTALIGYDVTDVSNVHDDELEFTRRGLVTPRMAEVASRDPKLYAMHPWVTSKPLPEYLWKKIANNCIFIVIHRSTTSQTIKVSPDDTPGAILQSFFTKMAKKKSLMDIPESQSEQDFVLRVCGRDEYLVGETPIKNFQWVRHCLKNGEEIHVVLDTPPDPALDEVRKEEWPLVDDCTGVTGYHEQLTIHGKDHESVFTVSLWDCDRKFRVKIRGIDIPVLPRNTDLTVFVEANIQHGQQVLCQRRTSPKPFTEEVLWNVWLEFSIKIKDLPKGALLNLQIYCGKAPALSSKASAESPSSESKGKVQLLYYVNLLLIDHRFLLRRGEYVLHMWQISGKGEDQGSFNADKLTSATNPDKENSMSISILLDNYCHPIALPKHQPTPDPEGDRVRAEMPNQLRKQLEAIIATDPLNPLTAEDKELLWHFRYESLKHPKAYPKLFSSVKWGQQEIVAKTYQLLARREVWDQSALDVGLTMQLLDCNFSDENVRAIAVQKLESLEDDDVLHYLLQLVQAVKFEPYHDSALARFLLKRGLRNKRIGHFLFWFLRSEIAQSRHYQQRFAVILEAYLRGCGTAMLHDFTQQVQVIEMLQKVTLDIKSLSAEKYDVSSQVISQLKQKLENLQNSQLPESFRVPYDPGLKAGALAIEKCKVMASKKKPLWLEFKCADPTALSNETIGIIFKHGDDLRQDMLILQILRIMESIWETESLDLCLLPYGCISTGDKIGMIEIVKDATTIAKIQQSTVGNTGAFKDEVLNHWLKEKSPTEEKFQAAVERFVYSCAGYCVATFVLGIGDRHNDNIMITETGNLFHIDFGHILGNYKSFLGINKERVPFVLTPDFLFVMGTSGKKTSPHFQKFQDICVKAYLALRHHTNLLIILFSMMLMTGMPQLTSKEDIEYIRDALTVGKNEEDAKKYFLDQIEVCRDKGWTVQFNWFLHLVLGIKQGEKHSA
T7 sequence (Q06187 whole entry C481S): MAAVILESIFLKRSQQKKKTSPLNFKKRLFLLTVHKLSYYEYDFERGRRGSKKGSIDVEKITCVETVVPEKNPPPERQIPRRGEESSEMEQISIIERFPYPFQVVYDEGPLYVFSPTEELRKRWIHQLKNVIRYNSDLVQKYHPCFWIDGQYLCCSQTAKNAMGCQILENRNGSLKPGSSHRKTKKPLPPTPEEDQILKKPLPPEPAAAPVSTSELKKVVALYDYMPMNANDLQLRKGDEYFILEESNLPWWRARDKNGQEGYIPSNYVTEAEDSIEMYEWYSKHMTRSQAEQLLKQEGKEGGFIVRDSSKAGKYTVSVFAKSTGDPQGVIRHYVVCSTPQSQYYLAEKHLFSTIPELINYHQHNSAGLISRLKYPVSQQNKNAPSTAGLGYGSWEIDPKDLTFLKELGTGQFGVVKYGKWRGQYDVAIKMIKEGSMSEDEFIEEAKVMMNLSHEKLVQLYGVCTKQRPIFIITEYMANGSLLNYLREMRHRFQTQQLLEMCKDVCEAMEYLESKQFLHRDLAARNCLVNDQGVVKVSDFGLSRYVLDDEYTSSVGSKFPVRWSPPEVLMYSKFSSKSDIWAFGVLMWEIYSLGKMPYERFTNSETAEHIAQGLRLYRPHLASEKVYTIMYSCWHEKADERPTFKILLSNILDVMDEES
T4 sequence (P42336 whole entry): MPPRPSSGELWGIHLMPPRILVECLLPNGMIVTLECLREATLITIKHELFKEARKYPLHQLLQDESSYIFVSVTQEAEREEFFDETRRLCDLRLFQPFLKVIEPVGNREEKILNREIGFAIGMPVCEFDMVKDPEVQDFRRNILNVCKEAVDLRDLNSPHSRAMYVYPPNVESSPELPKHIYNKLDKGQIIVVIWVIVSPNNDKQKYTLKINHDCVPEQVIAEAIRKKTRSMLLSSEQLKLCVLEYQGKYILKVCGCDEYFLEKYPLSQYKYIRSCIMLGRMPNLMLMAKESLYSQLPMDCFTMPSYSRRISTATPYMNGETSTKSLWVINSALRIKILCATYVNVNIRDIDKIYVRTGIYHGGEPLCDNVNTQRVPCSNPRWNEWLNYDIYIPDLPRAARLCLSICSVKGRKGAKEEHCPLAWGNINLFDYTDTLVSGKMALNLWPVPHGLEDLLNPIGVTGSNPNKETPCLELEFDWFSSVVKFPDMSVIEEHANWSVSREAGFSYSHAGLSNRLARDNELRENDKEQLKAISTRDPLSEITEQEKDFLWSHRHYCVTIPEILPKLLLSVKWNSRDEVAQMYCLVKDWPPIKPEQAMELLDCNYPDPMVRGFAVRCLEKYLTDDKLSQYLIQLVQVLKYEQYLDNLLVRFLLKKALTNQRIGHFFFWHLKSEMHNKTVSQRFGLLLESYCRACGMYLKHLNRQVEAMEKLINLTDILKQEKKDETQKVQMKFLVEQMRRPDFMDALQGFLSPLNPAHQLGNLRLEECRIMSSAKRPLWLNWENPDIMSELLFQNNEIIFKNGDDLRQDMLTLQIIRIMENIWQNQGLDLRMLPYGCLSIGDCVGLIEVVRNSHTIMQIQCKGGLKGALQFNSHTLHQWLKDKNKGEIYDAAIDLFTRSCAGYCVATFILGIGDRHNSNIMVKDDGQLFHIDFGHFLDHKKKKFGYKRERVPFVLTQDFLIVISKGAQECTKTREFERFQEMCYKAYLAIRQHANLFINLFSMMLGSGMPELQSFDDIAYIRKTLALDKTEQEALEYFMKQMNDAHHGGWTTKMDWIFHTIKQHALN
T4 sequence (P27986 whole entry partner): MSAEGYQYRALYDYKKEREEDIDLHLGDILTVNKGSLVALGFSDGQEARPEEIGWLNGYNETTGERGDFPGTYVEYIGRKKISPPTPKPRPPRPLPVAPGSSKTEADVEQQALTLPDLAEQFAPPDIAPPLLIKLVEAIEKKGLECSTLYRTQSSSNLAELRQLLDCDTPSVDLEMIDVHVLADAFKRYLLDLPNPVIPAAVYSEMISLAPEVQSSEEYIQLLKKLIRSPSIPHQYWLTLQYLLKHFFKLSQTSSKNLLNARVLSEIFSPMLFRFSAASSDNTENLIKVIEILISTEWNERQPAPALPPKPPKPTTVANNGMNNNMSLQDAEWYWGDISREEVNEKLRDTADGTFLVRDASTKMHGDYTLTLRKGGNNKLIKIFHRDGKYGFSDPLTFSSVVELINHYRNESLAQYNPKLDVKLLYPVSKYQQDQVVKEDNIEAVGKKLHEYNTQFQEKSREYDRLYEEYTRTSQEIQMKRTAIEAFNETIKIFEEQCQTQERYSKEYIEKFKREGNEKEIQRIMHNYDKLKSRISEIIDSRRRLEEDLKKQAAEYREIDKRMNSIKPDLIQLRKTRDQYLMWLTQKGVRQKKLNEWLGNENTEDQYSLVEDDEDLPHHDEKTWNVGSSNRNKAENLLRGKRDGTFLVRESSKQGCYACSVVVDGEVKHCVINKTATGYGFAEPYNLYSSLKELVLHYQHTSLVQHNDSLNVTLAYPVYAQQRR
T3 sequence (O00329 whole entry): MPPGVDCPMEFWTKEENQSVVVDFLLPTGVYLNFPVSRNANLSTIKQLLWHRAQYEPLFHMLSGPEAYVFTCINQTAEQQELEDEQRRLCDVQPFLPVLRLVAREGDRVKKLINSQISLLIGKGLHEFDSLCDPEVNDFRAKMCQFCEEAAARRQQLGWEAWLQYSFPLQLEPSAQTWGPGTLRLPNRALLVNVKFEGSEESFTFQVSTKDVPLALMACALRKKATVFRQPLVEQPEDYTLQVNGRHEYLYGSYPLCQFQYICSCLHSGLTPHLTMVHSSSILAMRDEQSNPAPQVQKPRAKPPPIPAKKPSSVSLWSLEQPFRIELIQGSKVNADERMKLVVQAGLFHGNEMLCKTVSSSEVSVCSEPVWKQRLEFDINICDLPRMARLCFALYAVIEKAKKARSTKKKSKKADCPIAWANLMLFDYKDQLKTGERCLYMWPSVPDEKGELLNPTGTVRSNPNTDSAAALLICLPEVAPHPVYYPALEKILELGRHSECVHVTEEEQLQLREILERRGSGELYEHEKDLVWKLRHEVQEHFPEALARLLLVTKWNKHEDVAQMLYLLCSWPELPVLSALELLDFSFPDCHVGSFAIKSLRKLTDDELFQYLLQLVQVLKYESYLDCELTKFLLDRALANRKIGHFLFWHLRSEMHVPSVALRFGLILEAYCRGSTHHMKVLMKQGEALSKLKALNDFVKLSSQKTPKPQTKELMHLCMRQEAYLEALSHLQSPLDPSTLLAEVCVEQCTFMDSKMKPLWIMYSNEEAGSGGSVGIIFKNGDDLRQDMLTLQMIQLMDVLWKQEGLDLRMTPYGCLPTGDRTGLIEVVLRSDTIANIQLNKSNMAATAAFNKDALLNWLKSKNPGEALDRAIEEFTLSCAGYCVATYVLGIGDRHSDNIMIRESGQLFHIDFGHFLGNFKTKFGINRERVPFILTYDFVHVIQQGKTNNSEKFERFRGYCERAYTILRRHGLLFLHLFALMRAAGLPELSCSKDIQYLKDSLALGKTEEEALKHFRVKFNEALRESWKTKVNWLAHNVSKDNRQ
T3 sequence (P27986 whole entry partner): as the sequence (P27986 whole entry partner) above
T2 sequence (Q06187 whole entry): as the sequence (Q06187 whole entry C481S) above, with S481C counted along it

| Structure (SMILES) | IC50 [6] [µM] | IC50 [7] [µM] | IC50 [8] [µM] | IC50 [9] [µM] | IC50 [10] [µM] | IC50 [11] [µM] | IC50 [12] [µM] | Ratio C481S/WT [12] | IC50 [1] [µM] | IC50 [2] [µM] | IC50 [3] [µM] | Percentage cells in apoptosis ([4]; Early) | Percentage cells in apoptosis ([4]; Late) | Percentage cells in apoptosis ([4]; Total) | Percentage cells in apoptosis ([5]; JeKo-1, 24-hour, Early) | Percentage cells in apoptosis ([5]; JeKo-1, 24-hour, Late) | Percentage cells in apoptosis ([5]; JeKo-1, 24-hour, Total) | Percentage cells in apoptosis ([5]; JeKo-1, 48-hour, Early) | Percentage cells in apoptosis ([5]; JeKo-1, 48-hour, Late) | Percentage cells in apoptosis ([5]; JeKo-1, 48-hour, Total) |
| --- | --- | --- | --- | --- | --- | --- | --- | --- | --- | --- | --- | --- | --- | --- | --- | --- | --- | --- | --- | --- |
| C=CC(=O)N1CCC[C@@H](n2nc(-c3ccc(Oc4ccccc4)cc3)c3c(N)ncnc32)C1 [Ibrutinib] |  |  |  |  |  |  |  |  | 10 to 30 | 1 to 10 | > 50 | ++ (between 5% and 10%) | + (less than 5%) | +++ (between 10% and 30%) | + (less than 5%) | + (less than 5%) | + (less than 5%) | + (less than 5%) | + (less than 5%) | ++ (between 5% and 10%) |
| C=CC(=O)N1CCOc2ccc(-c3csc4c(=O)cc(N5CCNCC5)oc34)cc21 [Compound 5, 1-{7-[7-Oxo-5-(1-piperazinyl)-4-oxa-1-thia-3-indenyl]-4-oxa-1-aza-2,3-dihydro-1H-naphth-1-yl}-2-propen-1-one] | > 50 | < 1 | 1 to 10 | 10 to 30 | 1 to 10 | < 1 | 10 to 30 | 52.0 |  |  |  |  |  |  |  |  |  |  |  |  |
| C=CC(=O)Nc1cccc(-c2csc3c(=S)cc(N4CCOCC4)oc23)c1 [Compound 2, 1-[m-(5-Morpholino-7-thioxo-4-oxa-1-thia-3-indenyl)phenylamino]-2-propen-1-one] | < 1 | 1 to 10 | < 1 | < 1 | 1 to 10 | 10 to 30 | 10 to 30 | 8.1 |  |  |  |  |  |  |  |  |  |  |  |  |
| C=CC(=O)N1CCOc2ccc(-c3csc4c(=O)cc(N5CCN(C(=O)OC(C)(C)C)CC5)oc34)cc21 [Compound 4, tert-butyl 4-[3-(4-acryloyl-1-oxa-4-aza-3,4-dihydro-2H-naphth-6-yl)-7-oxo-4-oxa-1-thia-5-indenyl]-1-piperazinecarboxylate] | 10 to 30 | < 1 | 1 to 10 | 10 to 30 | 1 to 10 | < 1 | 10 to 30 | 212 |  |  |  |  |  |  |  |  |  |  |  |  |

The next lines start with results.

| IC50 [6] [µM] | IC50 [7] [µM] | IC50 [8] [µM] | IC50 [9] [µM] | IC50 [10] [µM] | IC50 [11] [µM] | IC50 [12] [µM] | Ratio C481S/WT [12] | Structure (SMILES) | IC50 [1] [µM] | IC50 [2] [µM] | IC50 [3] [µM] | Percentage cells in apoptosis ([4]; Early) | Percentage cells in apoptosis ([4]; Late) | Percentage cells in apoptosis ([4]; Total) | Percentage cells in apoptosis ([5]; JeKo-1, 24-hour, Early) | Percentage cells in apoptosis ([5]; JeKo-1, 24-hour, Late) | Percentage cells in apoptosis ([5]; JeKo-1, 24-hour, Total) | Percentage cells in apoptosis ([5]; JeKo-1, 48-hour, Early) | Percentage cells in apoptosis ([5]; JeKo-1, 48-hour, Late) | Percentage cells in apoptosis ([5]; JeKo-1, 48-hour, Total) |
| --- | --- | --- | --- | --- | --- | --- | --- | --- | --- | --- | --- | --- | --- | --- | --- | --- | --- | --- | --- | --- |
| 10 to 30 |  | 1 to 10 | 1 to 10 | 10 to 30 | 1 to 10 |  |  | CCCCC/C=C/C(=O)Nc1cccc(-c2csc3c(=O)cc(N4CCOCC4)oc23)c1 [Compound 10, (E)-1-[m-(5-Morpholino-7-oxo-4-oxa-1-thia-3-indenyl)phenylamino]-2-octen-1-one] |  |  |  |  |  |  |  |  |  |  |  |  |
| < 1 | < 1 | < 1 | < 1 | < 1 | < 1 | < 1 | >20K | C=CS(=O)(=O)Nc1cccc(-c2csc3c(=O)cc(N4CCOCC4)oc23)c1 [II-18, 5-morpholino-3-[m-(vinylsulfonylamino)phenyl]-4-oxa-1-thia-7-indenone] |  |  |  |  |  |  |  |  |  |  |  |  |
| < 1 | 1 to 10 | < 1 | < 1 | < 1 | < 1 | 10 to 30 | 15.8 | CC#CC(=O)Nc1cccc(-c2csc3c(=O)cc(N4CCOCC4)oc23)c1 [Compound 12, 1-[m-(5-Morpholino-7-oxo-4-oxa-1-thia-3-indenyl)phenylamino]-2-butyn-1-one] |  |  |  |  |  |  |  |  |  |  |  |  |

Source: US20210300939A1, “Single Molecule Compounds Providing Multi-Target Inhibition of BTK and Other Proteins and Methods of Use Thereof” (SignalRx Pharmaceuticals, Inc., priority 2018, published 2021)
